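Step 1: Grow cells in 96-well plates. Step 2: Expose to compound for 48 hours at 5 concentrations. Step 3: Interpolate endpoints linearly; if unreached, use highest concentration. At the GI50, growth is halved. TGI is the concentration that stops growth completely.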
Key:
Experiment in all cases: NCI-60 cell line screen, 48 h
A498 renal = test system: A498 renal
BT-549 breast = test system: BT-549 breast
CAKI-1 renal = test system: CAKI-1 renal
COLO 205 colon = test system: COLO 205 colon
DU-145 prostate = test system: DU-145 prostate
HCC-2998 colon = test system: HCC-2998 colon
HCT-116 colon = test system: HCT-116 colon
HCT-15 colon = test system: HCT-15 colon
HL-60(TB) leukemia = test system: HL-60(TB) leukemia
HOP-62 NSCLC = test system: HOP-62 NSCLC
HOP-92 NSCLC = test system: HOP-92 NSCLC
HT29 colon = test system: HT29 colon
IGROV1 ovarian = test system: IGROV1 ovarian
K-562 leukemia = test system: K-562 leukemia
KM12 colon = test system: KM12 colon
LOX IMVI melanoma = test system: LOX IMVI melanoma
M14 melanoma = test system: M14 melanoma
MCF7 breast = test system: MCF7 breast
MDA-MB-231 breast = test system: MDA-MB-231 breast
MDA-MB-435 = test system: MDA-MB-435
MOLT-4 leukemia = test system: MOLT-4 leukemia
NCI-H23 lung = test system: NCI-H23 lung
NCI-H460 lung = test system: NCI-H460 lung
NCI-H522 lung = test system: NCI-H522 lung
OVCAR-3 ovarian = test system: OVCAR-3 ovarian
OVCAR-5 ovarian = test system: OVCAR-5 ovarian
RPMI-8226 leukemia = test system: RPMI-8226 leukemia
RXF 393 renal = test system: RXF 393 renal
SF-268 CNS = test system: SF-268 CNS
SF-295 CNS = test system: SF-295 CNS
SF-539 CNS = test system: SF-539 CNS
SK-MEL-2 melanoma = test system: SK-MEL-2 melanoma
SK-MEL-28 melanoma = test system: SK-MEL-28 melanoma
SK-MEL-5 melanoma = test system: SK-MEL-5 melanoma
SK-OV-3 ovarian = test system: SK-OV-3 ovarian
SN12C renal = test system: SN12C renal
SNB-19 CNS = test system: SNB-19 CNS
SNB-75 CNS = test system: SNB-75 CNS
SR leukemia = test system: SR leukemia
SW-620 colon = test system: SW-620 colon
T-47D breast = test system: T-47D breast
U251 CNS = test system: U251 CNS
UACC-257 melanoma = test system: UACC-257 melanoma
UACC-62 melanoma = test system: UACC-62 melanoma

Q: CNc1ccc(C(=O)CC(O)CCC(C)C2OC(=O)CC(O)CC(=O)CC(O)CC(O)CC(O)CC(O)CC3(O)CC(O)C(C(=O)OC)C(CC(O[C@@H]4O[C@H](C)[C@@H](O)[C@H](N)[C@@H]4O)/C=C/C=C/C=C/C=C/C=C/C=C/C=C/C2C)O3)cc1 (stereo partly drawn) was tested. Which GI50 (A498 renal) did it give?
A: The GI50 was 1.23 µM.

Q: And the TGI (A498 renal)?
A: The TGI was 2.89 µM.

Q: What about the GI50 (BT-549 breast) of the same compound?
A: Its GI50 is 3.45 µM.

Q: And the TGI (BT-549 breast)?
A: Its TGI is over 100 µM.

Q: What about the GI50 (CAKI-1 renal) of the same compound?
A: The GI50 was 1.88 µM.

Q: What about the TGI (CAKI-1 renal) of the same compound?
A: Its TGI is 4.89 µM.

Q: What about the GI50 (COLO 205 colon) of the same compound?
A: The GI50 was 2.69 µM.

Q: And the TGI (COLO 205 colon)?
A: The TGI was 6.6 µM.

Q: What about the GI50 (DU-145 prostate) of the same compound?
A: The GI50 was 1.85 µM.

Q: What about the TGI (DU-145 prostate) of the same compound?
A: The TGI was 3.55 µM.

Q: What about the GI50 (HCC-2998 colon) of the same compound?
A: Its GI50 is 3.25 µM.

Q: And the TGI (HCC-2998 colon)?
A: Its TGI is 12.3 µM.

Q: What about the GI50 (HCT-116 colon) of the same compound?
A: The GI50 was 3.46 µM.

Q: What about the TGI (HCT-116 colon) of the same compound?
A: Its TGI is over 100 µM.

Q: What about the GI50 (HCT-15 colon) of the same compound?
A: Its GI50 is 4.9 µM.

Q: And the TGI (HCT-15 colon)?
A: Its TGI is over 100 µM.

Q: What about the GI50 (HL-60(TB) leukemia) of the same compound?
A: The GI50 was 2.9 µM.

Q: And the TGI (HL-60(TB) leukemia)?
A: Its TGI is 7.04 µM.

Q: And the GI50 (HOP-62 NSCLC)?
A: Its GI50 is 2.27 µM.

Q: What about the TGI (HOP-62 NSCLC) of the same compound?
A: The TGI was 5.03 µM.

Q: And the GI50 (HOP-92 NSCLC)?
A: Its GI50 is 3.27 µM.

Q: What about the TGI (HOP-92 NSCLC) of the same compound?
A: Its TGI is over 100 µM.

Q: And the GI50 (HT29 colon)?
A: The GI50 was 3.63 µM.

Q: What about the TGI (HT29 colon) of the same compound?
A: Its TGI is 24.7 µM.

Q: What about the GI50 (IGROV1 ovarian) of the same compound?
A: The GI50 was 2.96 µM.

Q: What about the TGI (IGROV1 ovarian) of the same compound?
A: The TGI was 7.94 µM.

Q: What about the GI50 (K-562 leukemia) of the same compound?
A: Its GI50 is 5.05 µM.

Q: What about the TGI (K-562 leukemia) of the same compound?
A: Its TGI is 40.2 µM.

Q: What about the GI50 (KM12 colon) of the same compound?
A: Its GI50 is 3.9 µM.

Q: What about the TGI (KM12 colon) of the same compound?
A: The TGI was 12.4 µM.

Q: What about the GI50 (LOX IMVI melanoma) of the same compound?
A: The GI50 was 3.3 µM.

Q: And the TGI (LOX IMVI melanoma)?
A: Its TGI is over 100 µM.

Q: What about the GI50 (M14 melanoma) of the same compound?
A: Its GI50 is 2.26 µM.

Q: And the TGI (M14 melanoma)?
A: Its TGI is 7.32 µM.

Q: And the GI50 (MCF7 breast)?
A: The GI50 was 3.18 µM.

Q: And the TGI (MCF7 breast)?
A: The TGI was 19 µM.

Q: What about the GI50 (MDA-MB-231 breast) of the same compound?
A: Its GI50 is 2.88 µM.

Q: And the TGI (MDA-MB-231 breast)?
A: The TGI was over 100 µM.

Q: And the GI50 (MDA-MB-435)?
A: Its GI50 is 2.02 µM.

Q: What about the TGI (MDA-MB-435) of the same compound?
A: Its TGI is 6.19 µM.

Q: And the GI50 (MOLT-4 leukemia)?
A: The GI50 was 2.62 µM.

Q: What about the TGI (MOLT-4 leukemia) of the same compound?
A: The TGI was 6.31 µM.

Q: What about the GI50 (NCI-H23 lung) of the same compound?
A: The GI50 was 1.92 µM.

Q: What about the TGI (NCI-H23 lung) of the same compound?
A: The TGI was 4.84 µM.

Q: What about the GI50 (NCI-H460 lung) of the same compound?
A: The GI50 was 2.97 µM.

Q: What about the TGI (NCI-H460 lung) of the same compound?
A: The TGI was 10.1 µM.

Q: What about the GI50 (NCI-H522 lung) of the same compound?
A: The GI50 was 2.48 µM.

Q: What about the TGI (NCI-H522 lung) of the same compound?
A: Its TGI is 6.03 µM.

Q: What about the GI50 (OVCAR-3 ovarian) of the same compound?
A: Its GI50 is 2.73 µM.

Q: What about the TGI (OVCAR-3 ovarian) of the same compound?
A: Its TGI is 6.26 µM.

Q: And the GI50 (OVCAR-5 ovarian)?
A: The GI50 was 3.7 µM.

Q: What about the TGI (OVCAR-5 ovarian) of the same compound?
A: Its TGI is over 100 µM.

Q: And the GI50 (RPMI-8226 leukemia)?
A: Its GI50 is 3.57 µM.

Q: And the TGI (RPMI-8226 leukemia)?
A: The TGI was 54.5 µM.

Q: What about the GI50 (RXF 393 renal) of the same compound?
A: Its GI50 is 1.72 µM.

Q: And the TGI (RXF 393 renal)?
A: The TGI was 4.46 µM.

Q: And the GI50 (SF-268 CNS)?
A: Its GI50 is 2.82 µM.

Q: What about the TGI (SF-268 CNS) of the same compound?
A: Its TGI is 7.46 µM.

Q: And the GI50 (SF-295 CNS)?
A: The GI50 was 2.63 µM.

Q: What about the TGI (SF-295 CNS) of the same compound?
A: The TGI was 9.67 µM.

Q: What about the GI50 (SF-539 CNS) of the same compound?
A: Its GI50 is 13.6 µM.

Q: What about the TGI (SF-539 CNS) of the same compound?
A: The TGI was 47.9 µM.

Q: And the GI50 (SK-MEL-2 melanoma)?
A: Its GI50 is 3.59 µM.

Q: What about the TGI (SK-MEL-2 melanoma) of the same compound?
A: The TGI was 8.86 µM.

Q: And the GI50 (SK-MEL-28 melanoma)?
A: The GI50 was 1.12 µM.

Q: What about the TGI (SK-MEL-28 melanoma) of the same compound?
A: The TGI was 2.53 µM.

Q: What about the GI50 (SK-MEL-5 melanoma) of the same compound?
A: The GI50 was 1.42 µM.

Q: What about the TGI (SK-MEL-5 melanoma) of the same compound?
A: The TGI was 3.17 µM.

Q: What about the GI50 (SK-OV-3 ovarian) of the same compound?
A: The GI50 was 2.66 µM.

Q: What about the TGI (SK-OV-3 ovarian) of the same compound?
A: The TGI was 6.92 µM.

Q: What about the GI50 (SN12C renal) of the same compound?
A: The GI50 was 1.46 µM.

Q: And the TGI (SN12C renal)?
A: The TGI was 2.99 µM.

Q: And the GI50 (SNB-19 CNS)?
A: The GI50 was 3.82 µM.

Q: And the TGI (SNB-19 CNS)?
A: Its TGI is over 100 µM.

Q: What about the GI50 (SNB-75 CNS) of the same compound?
A: Its GI50 is 2.83 µM.

Q: And the TGI (SNB-75 CNS)?
A: The TGI was 30.8 µM.

Q: And the GI50 (SR leukemia)?
A: Its GI50 is 2.33 µM.

Q: And the TGI (SR leukemia)?
A: Its TGI is 5.47 µM.

Q: And the GI50 (SW-620 colon)?
A: Its GI50 is 5.33 µM.

Q: What about the TGI (SW-620 colon) of the same compound?
A: Its TGI is 40.5 µM.

Q: And the GI50 (T-47D breast)?
A: Its GI50 is 3.37 µM.

Q: What about the TGI (T-47D breast) of the same compound?
A: Its TGI is over 100 µM.

Q: What about the GI50 (U251 CNS) of the same compound?
A: Its GI50 is 3.87 µM.

Q: What about the TGI (U251 CNS) of the same compound?
A: The TGI was 56.4 µM.

Q: What about the GI50 (UACC-257 melanoma) of the same compound?
A: Its GI50 is 1.45 µM.

Q: And the TGI (UACC-257 melanoma)?
A: Its TGI is 3.18 µM.

Q: What about the GI50 (UACC-62 melanoma) of the same compound?
A: The GI50 was 2.49 µM.

Q: And the TGI (UACC-62 melanoma)?
A: Its TGI is over 100 µM.

Source: PubChem BioAssay (NCI)
